# Measured values reported in PMC9368490, “Exploring the Molecular Interactions of Symmetrical and Unsymmetrical Selenoglycosides with Human Galectin-1 and Galectin-3” (International Journal of Molecular Sciences, 2022).
# Legend:
# Gal-3^CRD = molecular target: T1, Gal-3^CRD (Homo sapiens, UniProt P17931); test: biochemical
# T1 construct: gene LGALS3
# Gal-1 = molecular target: T2, Gal-1 (Homo sapiens, UniProt P09382); test: biochemical
# T2 construct: gene LGALS1
# T2 sequence (P09382 whole entry): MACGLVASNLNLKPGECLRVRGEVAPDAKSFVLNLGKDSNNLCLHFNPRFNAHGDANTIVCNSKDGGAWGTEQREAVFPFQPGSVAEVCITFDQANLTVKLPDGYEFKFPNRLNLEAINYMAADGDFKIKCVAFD
# T1 sequence (P17931 112-250): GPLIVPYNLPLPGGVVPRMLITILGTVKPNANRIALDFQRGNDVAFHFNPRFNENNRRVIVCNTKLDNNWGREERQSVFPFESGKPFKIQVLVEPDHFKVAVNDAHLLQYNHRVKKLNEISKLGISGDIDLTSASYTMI
structure (smiles),measurement,setting,value
OC[C@H]1O[C@@H]([Se][C@@H]2O[C@H](CO)[C@H](O)[C@H](O)[C@H]2O)[C@H](O)[C@@H](O)[C@H]1O [SeDG],Kd,Gal-3^CRD,20.2 ± 2.2 µM
same,Kd,Gal-1,23.7 ± 4.2 µM
